The values that follow come from US6432711B1, “Embryonic stem cells capable of differentiating into desired cell lines” (Diacrin, Inc., priority 1993, dated 2002).

What all share (format): cell-based
The subject of assay [1] is embryonic stem cells (ES-D3). The assay is described as follows: Differentiation of embryonic stem cell aggregates into contracting muscle cells by dimethylsulfoxide induction. As to conditions: 1% (by volume) dimethylsulfoxide in DMEM plus 10% horse serum, aggregates cultured 5 days in multi-well dishes. The source says: Undifferentiated embryonic stem cells (ES-D3, purchased from the American Type Culture Collection as ATCC catalog no. ATCC CRL 1934) are maintained in supplemented Dulbecco's modified Minimal Essential Medium as described in Example 1. The embryonic stem cells then are trypsinized and washed free of LIF and placed in 1% (by volume) dimethylsulfoxide in DMEM plus 10% horse serum. Two days after the addition of dimethylsulfoxide and plating of cells in Petri dishes to form aggregates, the aggregates are collected and resuspended in fresh medium plus 1% dimethylsulfoxide. The aggregates are then plated onto multi-well untreated culture grade dishes without trypsin treatment. One aggregate is plated per well. The aggregates are cultured for 5 days. Upon culturing of the cells in multi-well dishes, cell cultures in which greater than 80% of the aggregates contain contracting muscle cells are obtained. Such cells may be used to treat cardiomyopathies, myocardial infarction, congestive heart failure, or muscular dystrophy.

Assay [2] relates to D3 and E14 TG2a embryonic stem cell lines transfected with mouse MyoD cDNA. Kind of assay: Differentiation of MyoD-transfected embryonic stem cell lines into muscle after dimethylsulfoxide induction. Here is the method: For transfection of embryonic stem cells with mouse MyoD cDNA, both the D3 (ATCC catalog no. CRL 1934) and E14 TG2a (ATCC catalog no. CRL 1821) embryonic stem cell lines were used. Embryonic stem cells were cultured as described in Robertson, 1987, except that the cells were maintained in media containing 5 ng/ml human recombinant leukemia inhibitory factor instead of on feeder layers.
Embryonic stem cells were co-transfected with pKJ1-Neo (Dinsmore, et al., Cell, Vol. 64, pgs. 817-826 (1991)), which carries the neomycin resistance gene for selection of stable transfectants, and with pEMCII (Davis, et al., Cell, Vol. 51, pgs. 987-1000 (1987)), which contains a portion of the mouse MyoD cDNA. pKJ1-Neo was linearized at the unique NsiI site and pEMCII was linearized at the unique ScaI site. In order to introduce the linearized plasmids into the embryonic stem cells, the embryonic stem cells were electroporated using a Gene Pulser (Bio Rad) in 0.4 cm gap distance electroporation cuvettes with the Gene Pulser set at 240 volts, 500μ Farads. […]
Stable transfectants were isolated, expanded, frozen, and then stored in liquid nitrogen. […] The percentage of cells that differentiated into skeletal muscle was greater than 90% as assessed by staining for muscle specific myosin, and by the ability of these cells to fuse and form myotubes that spontaneously twitch. […]

Assay [3] has as its system embryonic stem cells (ES-E14TG2a). The assay is described as follows: Differentiation of embryonic stem cells into neuronal cells by retinoic acid induction. Conditions: 0.5 μM retinoic acid, aggregates induced four days in DMEM plus 10% FBS, then cultured 5 days in stem cell medium on poly-D-lysine. The source says: Undifferentiated embryonic stem cells (ES-E14TG2a, purchased from the American Type Culture Collection, catalog no. ATCC CRL 1821) are maintained in Dulbecco's modified Minimal Essential Medium (DMEM) supplemented with glutamine, β-mercaptoethanol, 10% (by volume) horse serum, and human recombinant Leukemia Inhibitory Factor (LIF). The LIF replaces the need for maintaining embryonic stem cells on feeder layers of cells, and is essential for maintaining embryonic stem cells in an undifferentiated state.
In order to promote the differentiation of the embryonic stem cells into neuronal cells, the embryonic stem cells are trypsinized and washed free of LIF, and placed in DMEM supplemented with 10% (by volume) fetal bovine serum (FBS). After resuspension in DMEM and 10% FBS, 1×10^6 cells are plated in 5 ml DMEM plus 10% FBS plus 0.5 μM retinoic acid in a 60 mm Fisher brand bacteriological grade Petri dish. In such Petri dishes, embryonic stem cells cannot adhere to the dish, and instead adhere to each other, thus forming small aggregates of cells. Aggregation of cells aids in enabling proper cell differentiation. After two days, aggregates of cells are collected and resuspended in fresh DMEM plus 10% FBS plus 0.5 μM retinoic acid, and replated in Petri dishes for an additional two days. […]

For `C[S+](C)[O-]` [dimethylsulfoxide], the “percentage of aggregates that contain contracting muscle cells” value in assay [1] was “greater than 80%”. In addition, the “cell types obtained after induction” value in assay [2] (MyoD transformants expressing very low amounts of MyoD, indistinguishable from non-transfected embryonic stem cells) was “mix of cardiac, smooth, and skeletal muscle”. The “percentage of cells that differentiated into skeletal muscle” value in assay [2] (cell lines expressing high amounts of MyoD, staining for muscle specific myosin, fusion into twitching myotubes) was “greater than 90%”.
For `CC1=C(/C=C/C(C)=C/C=C/C(C)=C/C(=O)O)C(C)(C)CCC1` [retinoic acid], in assay [3], the “percentage of cells in the culture that are neuronal cells” value is recorded as “greater than 90%”.
